“Also recorded” adds a separate entry of the source. Like-named read-outs stand apart in the source and are kept apart here.
Legend:
MCF7 = assay: SRB cell growth assay, 72 h; type: cell-based, human
[1] = test system: human primary colon tumors CR-LRB-009C; assay: antitumor activity against subcutaneous CR-LRB-009C xenografts; type: in vivo
Description: The human primary colon carcinoma CR-LRB-009C tumor model was established by implanting (SC) small tumor fragments and was maintained in SCID female mice using serial passages.
(§1) Treatments were administered on measurable tumors. […] Mice were checked daily, and adverse clinical reactions noted.
(§2) Animal body weights included the tumor weight.
(§3) The primary efficacy end points are ΔT/ΔC, percent median regression, partial and complete regressions (PR and CR). Statistical analyses were performed on SAS system release 8.2 for SUN4 via Everstat V5 software and SAS 9.2 software. A probability less than 5% (p<0.05) was considered as significant.

CASKI = assay: SRB cell growth assay, 72 h; type: cell-based, human; details: single agent
HCT116 = assay: SRB cell growth assay, 72 h; type: cell-based, human; details: single agent
A549 = assay: SRB cell growth assay, 72 h; type: cell-based, human
MDAMB468 = assay: SRB cell growth assay, 72 h; type: cell-based, human; details: single agent, up to 50 μM
Description: (§4) Cell growth and treatment were performed in 96-well microtitre plates CELLSTAR® (Greiner Bio-One, Germany). Cells harvested from exponential phase cultures by trypsinization were plated in 150 μl of media at optimal seeding densities. The optimal seeding densities for each cell line were determined to ensure exponential growth for the duration of the experiment. All cells growing without anticancer agents were sub-confluent by the end of the treatment as determined by visual inspection.
(§5) 150 μl of cells, after a 24-hour pre-growth period, were treated by mixing with 50 μl of the compound containing media (resulting in a final DMSO concentration of 0.1%). The cells were allowed to grow at 37° C. for 72 hours. In addition, all experiments contained a few plates with cells that were processed for measurement immediately after the 24 hours recovery period. These plates contained information about the cell number that existed before treatment, at time zero, and served to calculate the cytotoxicity.
(§6) After treatment, cells were precipitated by addition of 10% TCA. Prior to fixation, the media was aspirated as described. After an hour of incubation at 4° C., the plates were washed two times with 400 μl of deionized water. Cells were then stained with 100 μl of a 0.08% wt/v SRB. The plates were allowed to sit for at least 30 min. and washed six times with 1% acetic acid to remove unbound stain. The plates were left to dry at room temperature and bound SRB was solubilized with 100 μl of 10 mM Tris base. Measurement of optical density was performed at 560 nm on a Victor 2 plate reader (Perkin Elmer, Germany). The SRB values for A375 and H460 cell lines were near to saturation (2.5 OD units) due to the high protein content of these cells, but not cell confluence. The measurements for these cells were performed at 520 nm instead of 560 nm.
(§7) Using these measurements, cellular responses can be calculated for incomplete inhibition of cell growth (GI), complete inhibition of cell growth (T GI) and net loss of cells (LC) due to compound activity. […] This is the drug concentration causing a 50% reduction compared to the net protein increase in control cells during the drug incubation period. In other words, GI50 is IC50 corrected for time zero. Similar to IC90, calculated GI90 values are also reported for all compounds tested. TGI was calculated from Ti=Tz. […] It was calculated as 100×[(Ti−Tz)/Tz]=−50. However, due to 72 hours treatment, low cell seeding density was required and LC50 could rarely be achieved.

[2] = test system: resting Peripheral Blood Mononuclear Cells, PBMC; assay: SRB cell growth assay, 72 h, non-proliferating cells; type: cell-based
Description: Cell lines were selected to represent 17 different indications with many different genetic variations and biochemical characteristics. In addition, the study included resting Peripheral Blood Mononuclear Cells, PBMC, as a model for non-proliferating cells.
as §4, with “inspection. […]” for “inspection.”
After treatment, cells were precipitated by addition of 10% TCA. […] Measurement of optical density was performed at 560 nm on a Victor 2 plate reader (Perkin Elmer, Germany). […]
Using these measurements, cellular responses can be calculated for incomplete inhibition of cell growth (GI), complete inhibition of cell growth (T GI) and net loss of cells (LC) due to compound activity. […] Similar to IC90, calculated GI90 values are also reported for all compounds tested. TGI was calculated from Ti=Tz. […] It was calculated as 100×[(Ti−Tz)/Tz]=−50. […]

[3] = test system: human primary colon tumors CR-LRB-013P; assay: antitumor activity against subcutaneous CR-LRB-013P xenografts; type: in vivo
Description: The human primary colon carcinoma CR-LRB-013P tumor model was established by implanting (SC) small tumor fragments and was maintained in SCID female mice using serial passages.
as §1, §2, §3

DU145 = assay: SRB cell growth assay, 72 h; type: cell-based, human; details: single agent
[4] = test system: human colon carcinoma HCT 116
Description: Mice were over 18 g at start of treatment after an acclimatization time of at least 5 days. […] The mice were housed on a 12 hours light/dark cycle.
Human colon carcinoma HCT 116 cells were purchased at American Type Culture Collection [(ATCC), Rockville, Md., USA). The HCT 116 cells were cultured in Dulbecco's modified Eagle's medium (DMEM) (Invitrogen).
The animals required to begin a given experiment were pooled and implanted monolaterally on day 0. Treatments were administered on measurable tumors. The solid tumors were allowed to grow to the desired volume range (animals with tumors not in the desired range were excluded). The mice were then pooled and unselectively distributed to the various treatment and control groups. […] The dosages are expressed in mg/kg, based on the body weight at start of therapy. Mice were checked daily, and adverse clinical reactions noted. Each group of mice was weighed as a whole daily until the weight nadir was reached. Then, groups were weighed once to thrice weekly until the end of the experiment. Tumors were measured with a caliper 2 to 3 times weekly until final sacrifice for sampling time, tumor reached 2000 mm^3 or until the animal died (whichever comes first). Solid tumor volumes were estimated from two-dimensional tumor measurements and calculated according to the following equation:
Changes in tumor volume for each treated (T) and control (C) group were calculated for each tumor by subtracting the tumor volume on the day of first treatment (staging day) from the tumor volume on the specified observation day. The median ΔT is calculated for the treated group, and the median ΔC is calculated for the control group. Then the ratio ΔT/ΔC is calculated and expressed as a percentage. The dose is considered as therapeutically active when ΔT/ΔC is lower than 40% and very active when ΔT/ΔC is lower than 10%.
The percent of tumor regression is defined as the % of tumor volume decrease in the treated group at a specified observation day compared to its volume on the first day of treatment. At a specific time point and for each animal, % regression is calculated. The median % regression is then calculated for the group using the following equation:
Partial regression: Regressions are defined as partial if the tumor volume decreases to 50% of the tumor volume at the start of treatment.
Complete regression: The CR is achieved when tumor volume=0 mm^3 (CR is considered when tumor volume cannot be recorded).

COLO678 = assay: SRB cell growth assay, 72 h; type: cell-based; details: Homo sapiens, COLO-678, most sensitive cell lines
Description: as §4, §5, §6, §7

A673 = assay: SRB cell growth assay, 72 h; type: cell-based, human; details: single agent
DLD1 = assay: SRB cell growth assay, 72 h; type: cell-based, human; details: single agent
BT20 = assay: SRB cell growth assay, 72 h; type: cell-based, human; details: single agent
SKBR3 = assay: SRB cell growth assay, 72 h; type: cell-based, human; details: single agent
EJ28 = assay: SRB cell growth assay, 72 h; type: cell-based, human; details: single agent
[5] = (1) 20 mg/kg PO daily days 11-21
[6] = as single agents or used in combination
[7] = (1) 20 mg/kg PO daily days 33-50
[8] = study 1, (1) 5 mg/kg PO daily days 11-18
[9] = study 2, (1) 10 mg/kg PO daily days 11-18 (day 17: 20 mg/kg)
[10] = study 2, (1) 20 mg/kg PO daily days 11-18
[11] = study 3, (1) 10 mg/kg PO daily days 11-20
[12] = study 3, (1) 20 mg/kg PO daily days 11-20
[13] = study 4, (1) 10 mg/kg PO daily days 11-20
[14] = study 4, (1) 20 mg/kg PO daily days 11-20

Compound: O=C(NC[C@H](O)CO)c1ccncc1Nc1ccc(I)cc1F [Compound (1), N—((S)-2,3-dihydroxypropyl)-3-(2-fluoro-4-iodo-phenylamino)isonicotinamide]
- GI50 (MCF7; Homo sapiens): 150 nM
- z-score MSC6369 (MCF7; single agent): −0.33
- Average body weight change in % per mouse at nadir [1, 5]: −7.7 (20) %
- Drug death [1, 5]: 0/7
- Regressions Complete [1, 5]: 0/7
- Regressions Partial [1, 5]: 0/7
- Median ΔT/ΔC in % day 21 ([1]; (1) 20 mg/kg PO daily days 11-21, 20 mg/kg): 53%
- tolerability [1, 6]: tolerated, inducing some BWL but not reaching toxicity
- z-score MSC6369 (CASKI): 1.55
- z-score MSC6369 (HCT116): −0.32
- GI50 (A549; Homo sapiens): 300 nM
- z-score MSC6369 (A549; single agent): −0.11
- activity (cell growth inhibition) (MDAMB468): minimal activity
- activity in resting (arrested) PBMC [2]: no activity
- Average body weight change in % per mouse at nadir [3, 7]: −4.5 (50) %
- Drug death [3, 7]: 0/7
- Median ΔT/ΔC in % day 50 [3, 7]: 30%
- Regressions Complete [3, 7]: 0/7
- Regressions Partial [3, 7]: 0/7
- tolerability [3, 6]: tolerated, inducing some BWL but not reaching toxicity
- z-score MSC6369 (DU145): 0.73
- Average body weight change in % per mouse at nadir [4, 8]: −3.4 (14) %
- Drug death [4, 8]: 0/7
- Regressions Complete [4, 8]: 0/7
- Regressions Partial [4, 8]: 0/7
- Median ΔT/ΔC in % day 18 ([4]; study 1, (1) 5 mg/kg PO daily days 11-18, 5 mg/kg): 70%
- tolerability ([4]; study 1, as single agents or used in combination): well-tolerated, inducing minimal BWL
- Average body weight change in % per mouse at nadir [4, 9]: −2.2 (18) %
- Drug death [4, 9]: 0/7
- Median ΔT/ΔC in % day 18 [4, 9]: 20%
- Regressions Complete [4, 9]: 0/7
- Regressions Partial [4, 9]: 0/7
- Average body weight change in % per mouse at nadir [4, 10]: −1.1 (15) %
- Drug death [4, 10]: 0/7
- Median ΔT/ΔC in % day 18 [4, 10]: 22%
- Regressions Complete [4, 10]: 0/7
- Regressions Partial [4, 10]: 0/7
- tolerability ([4]; study 2, as single agents): well-tolerated, inducing minimal BWL
- Average body weight change in % per mouse at nadir [4, 11]: −4.9 (20) %
- Drug death [4, 11]: 0/10
- Regressions Complete [4, 11]: 0/10
- Regressions Partial [4, 11]: 0/10
- Median ΔT/ΔC in % day 20 ([4]; study 3, (1) 10 mg/kg PO daily days 11-20, 10 mg/kg): 43%
- Average body weight change in % per mouse at nadir [4, 12]: −3.6 (19) %
- Drug death [4, 12]: 0/10
- Median ΔT/ΔC in % day 20 [4, 12]: 34%
- Regressions Complete [4, 12]: 0/10
- Regressions Partial [4, 12]: 0/10
- tolerability ([4]; study 3, as single agents): well-tolerated, inducing minimal BWL
- Average body weight change in % per mouse at nadir [4, 13]: −2.3 (13) %
- Drug death [4, 13]: 0/10
- Regressions Complete [4, 13]: 0/10
- Regressions Partial [4, 13]: 0/10
- Median ΔT/ΔC in % day 20 ([4]; study 4, (1) 10 mg/kg PO daily days 11-20, 10 mg/kg): 53%
- Average body weight change in % per mouse at nadir [4, 14]: −4.1 (18) %
- Drug death [4, 14]: 0/10
- Regressions Complete [4, 14]: 0/10
- Regressions Partial [4, 14]: 0/10
- Median ΔT/ΔC in % day 20 ([4]; study 4, (1) 20 mg/kg PO daily days 11-20, 20 mg/kg): 41%
- tolerability ([4]; study 4, as single agents): well-tolerated, inducing minimal BWL
- IC50 (COLO678): 4.8 to 8 nM
- z-score MSC6369 (A673): 3.00
- activity (cell growth inhibition) (A673; up to 50 μM): minimal activity; also recorded: non-sensitive
- z-score MSC6369 (DLD1): 0.19
- z-score MSC6369 (BT20): 0.02
- sensitivity (SKBR3): non-sensitive
- z-score MSC6369 (SKBR3): 0.69
- z-score MSC6369 (EJ28): −0.68
